IC50 data for 35 compounds are collected here from US7795278B2 (sanofi-aventis Deutschland GmbH, priority 2004, dated 2010).

SMILES strings stand for the structures. pIC50: −log10 of the molar value.

The assay deals with recombinantly expressed human PARP-1 enzyme (Homo sapiens, UniProt P09874). The assay can be described thus: PARP enzyme assay (half-maximum inhibitor concentration). To be noted: DNA-activated PARP-1, 200 μM NAD, tritium-labeled NAD incorporation, room temperature, 1 hour, pH 8.0. Type of assay: biochemical. The method, then: Pharmacological Investigations PARP Enzyme Assay
recombinantly expressed human PARP-1 enzyme, sequence (P09874 whole entry): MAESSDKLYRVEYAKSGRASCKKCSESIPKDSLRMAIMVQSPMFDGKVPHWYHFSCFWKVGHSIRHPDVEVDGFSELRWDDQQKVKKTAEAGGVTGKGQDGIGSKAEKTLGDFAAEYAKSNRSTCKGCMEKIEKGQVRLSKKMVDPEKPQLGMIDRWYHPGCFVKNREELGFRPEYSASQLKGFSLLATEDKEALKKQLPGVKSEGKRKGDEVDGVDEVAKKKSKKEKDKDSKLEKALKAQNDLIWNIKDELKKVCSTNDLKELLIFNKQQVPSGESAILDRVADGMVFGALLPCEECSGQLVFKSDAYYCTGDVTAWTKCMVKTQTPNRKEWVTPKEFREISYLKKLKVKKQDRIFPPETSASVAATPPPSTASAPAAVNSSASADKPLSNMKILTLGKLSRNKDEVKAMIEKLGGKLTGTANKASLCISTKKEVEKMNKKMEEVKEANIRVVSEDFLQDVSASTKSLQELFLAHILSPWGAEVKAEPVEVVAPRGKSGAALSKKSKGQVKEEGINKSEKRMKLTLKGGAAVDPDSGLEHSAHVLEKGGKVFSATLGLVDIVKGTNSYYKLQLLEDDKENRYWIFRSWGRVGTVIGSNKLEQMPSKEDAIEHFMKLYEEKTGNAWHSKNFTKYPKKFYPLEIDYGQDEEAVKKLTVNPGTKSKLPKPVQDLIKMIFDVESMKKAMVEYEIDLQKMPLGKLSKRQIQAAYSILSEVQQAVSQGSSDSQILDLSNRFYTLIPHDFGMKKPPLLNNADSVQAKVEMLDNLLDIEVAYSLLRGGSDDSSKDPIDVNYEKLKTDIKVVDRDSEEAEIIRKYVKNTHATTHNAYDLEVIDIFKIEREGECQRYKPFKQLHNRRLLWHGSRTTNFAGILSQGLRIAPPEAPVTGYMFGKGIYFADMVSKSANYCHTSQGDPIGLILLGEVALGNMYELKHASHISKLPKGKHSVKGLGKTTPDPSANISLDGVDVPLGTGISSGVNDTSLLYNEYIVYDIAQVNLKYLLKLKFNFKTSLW
The half-maximum inhibitor concentration is determined by incubating the substances to be tested with the DNA-activated, recombinantly expressed and purified PARP-1 enzyme. Specifically, various concentrations of the test substance are incubated in 50 μl of reaction solution, which contains 50 mM Tris, 5 mM MgCl2, 1 mM DTT, 200 μM NAD, 0.1 mCi/ml tritium-labeled NAD, 0.1 mg/ml DNA, 0.1 mg/ml histones, 2 μg/ml recombinantly expressed human PARP-1 enzyme, pH=8.0, at room temperature for 1 hour. The reaction is stopped by adding 150 μl of 20% trichloroacetic acid, and the radiolabeled protein constituents are precipitated. After incubation on ice for 10 minutes, the labeled, insoluble constituents are separated off through a glass fiber filter and, after washing with 20% trichloroacetic acid three times, the radioactivity incorporated by the PARP-1 enzyme is measured by radioluminescence.
IC-50 values were determined in this way for the following compounds: […]
With `COc1cccc(CNC(=O)c2cncc(-c3c[nH]c(=O)c4c3CCCC4)c2)c1` [Example 45, N-(3-methoxybenzyl)-5-(1-oxo-1,2,5,6,7,8-hexahydroisoquinolin-4-yl)nicotinamide], the pIC50 is 5.77.

For the compound `COc1ccccc1CNC(=O)c1cncc(-c2c[nH]c(=O)c3c2CCCC3)c1` [Example 46, N-(2-methoxybenzyl)-5-(1-oxo-1,2,5,6,7,8-hexahydroisoquinolin-4-yl)nicotinamide], the pIC50 is 5.50.

Consider `COc1cccc(CNC(=O)c2cncc(-c3c[nH]c(=O)c4c3CCCC4)c2)c1OC` [Example 47, N-(2,3-dimethoxybenzyl)-5-(1-oxo-1,2,5,6,7,8-hexahydroisoquinolin-4-yl)nicotinamide], for which the pIC50 is 5.48.

On to `O=C(NCc1ccncc1)c1cncc(-c2c[nH]c(=O)c3c2CCCC3)c1` [Example 48, 5-(1-oxo-1,2,5,6,7,8-hexahydroisoquinolin-4-yl)-N-pyridin-4-ylmethylnicotinamide], for which the pIC50 is 5.51.

Consider `CCN1CCCC1CNC(=O)c1cncc(-c2c[nH]c(=O)c3c2CCCC3)c1` (centres unmarked) [Example 49, N-(1-ethylpyrrolidin-2-ylmethyl)-5-(1-oxo-1,2,5,6,7,8-hexahydroisoquinolin-4-yl)nicotinamide], for which the negative logarithm of the IC50 (pIC50) was 5.29.

For the compound `Cc1[nH]c(=O)c2c(c1-c1ccc(CNCc3ccccc3)o1)CCCC2` [Example 51, 4-[5-(benzylaminomethyl)furan-2-yl]-3-methyl-5,6,7,8-tetrahydro-2H-isoquinolin-1-one], the pIC50 is 6.23.

Consider `Cc1[nH]c(=O)c2c(c1-c1ccc(CNCc3cnn(C)c3)o1)CCCC2` [Example 52, 3-methyl-4-(5-{[(1-methyl-1H-pyrazol-4-ylmethyl)amino]methyl}-furan-2-yl)-5,6,7,8-tetrahydro-2H-isoquinolin-1-one], for which the pIC50 was 6.48.

As for `CCCCNCc1ccc(-c2c(C)[nH]c(=O)c3c2CCCC3)o1` [Example 53, 4-(5-butylaminomethylfuran-2-yl)-3-methyl-5,6,7,8-tetrahydro-2H-isoquinolin-1-one], the pIC50 was 6.62.

For the compound `Cn1c(CNCc2ccc(-c3c[nH]c(=O)c4c3CCCC4)o2)nc2ccccc21` [Example 55, 4-(5-{[(1-methyl-1H-benzoimidazol-2-ylmethyl)amino]methyl}furan-2-yl)-5,6,7,8-tetrahydro-2H-isoquinolin-1-one], the negative logarithm of the IC50 (pIC50) was 5.34.

In the case of `O=c1[nH]cc(-c2ccc(CN3CCN(c4ncccn4)CC3)o2)c2c1CCCC2` [Example 56, 4-[5-(4-pyrimidin-2-ylpiperazin-1-ylmethyl)furan-2-yl]-5,6,7,8-tetrahydro-2H-isoquinolin-1-one], the pIC50 was 5.84.

With `O=c1[nH]cc(-c2ccc(CNCCN3CCCC3)o2)c2c1CCCC2` [Example 57, 4-{5-[(2-pyrrolidin-1-ylethylamino)-methyl]furan-2-yl}-5,6,7,8-tetrahydro-2H-isoquinolin-1-one], the pIC50 is 6.38.

Turning to `O=c1[nH]cc(-c2ccc(CNCc3ccncc3)o2)c2c1CCCC2` [Example 58, 4-(5-{[(pyridin-4-ylmethyl)amino]-methyl}furan-2-yl)-5,6,7,8-tetrahydro-2H-isoquinolin-1-one], the pIC50 is 5.90.

`O=c1[nH]cc(-c2ccc(CNCc3cccnc3)o2)c2c1CCCC2` [Example 59, 4-(5-{[(pyridin-3-ylmethyl)amino]-methyl}furan-2-yl)-5,6,7,8-tetrahydro-2H-isoquinolin-1-one]: the negative-log IC50 (pIC50) is 6.00.

For the compound `O=c1[nH]cc(-c2ccc(CN3CCCC3)o2)c2c1CCCC2` [Example 61, 4-(5-pyrrolidin-1-ylmethylfuran-2-yl)-5,6,7,8-tetrahydro-2H-isoquinolin-1-one], the pIC50 was 6.96.

For the compound `O=c1[nH]cc(-c2ccc(CNCc3ccccn3)o2)c2c1CCCC2` [Example 62, 4-(5-{[(pyridin-2-ylmethyl)amino]-methyl}furan-2-yl)-5,6,7,8-tetrahydro-2H-isoquinolin-1-one], the pIC50 is 5.82.

For `O=c1[nH]cc(-c2ccc(CN3CCC(O)C3)o2)c2c1CCCC2` (centres unmarked) [Example 63, 4-[5-(3-hydroxypyrrolidin-1-ylmethyl)furan-2-yl]-5,6,7,8-tetrahydro-2H-isoquinolin-1-one], the negative logarithm of the IC50 (pIC50) was 6.62.

Regarding `O=c1[nH]cc(-c2ccc(CNCN3CCC(N4CCCC4)CC3)o2)c2c1CCCC2` [Example 64, 4-(5-{[(4-pyrrolidin-1-ylpiperidin-1-ylmethyl)amino]methyl}furan-2-yl)-5,6,7,8-tetrahydro-2H-isoquinolin-1-one], the pIC50 was 6.47.

With `CN(C)CCNCc1ccc(-c2c[nH]c(=O)c3c2CCCC3)o1` [Example 65, 4-{5-[(2-dimethylaminoethyl-amino)methyl]furan-2-yl}-5,6,7,8-tetrahydro-2H-isoquinolin-1-one], the pIC50 was 6.34.

Regarding `CN(Cc1ccc(-c2c[nH]c(=O)c3c2CCCC3)o1)Cc1nc2c(s1)CCCC2` [Example 66, 4-(5-{[methyl-(4,5,6,7-tetrahydro-benzothiazol-2-ylmethyl)amino]-methyl}furan-2-yl)-5,6,7,8-tetrahydro-2H-isoquinolin-1-one], the pIC50 was 5.93.

In the case of `O=c1[nH]cc(-c2ccc(CN3CCCC3c3ccccn3)o2)c2c1CCCC2` (centres unmarked) [Example 67, 4-[5-(2-pyridin-2-ylpyrrolidin-1-ylmethyl)furan-2-yl]-5,6,7,8-tetrahydro-2H-isoquinolin-1-one], the pIC50 is 6.14.

`O=c1[nH]cc(-c2ccc(CNCc3nc4ccccc4[nH]3)o2)c2c1CCCC2` [Example 68, 4-(5-{[(1H-benzimidazol-2-ylmethyl)amino]methyl}furan-2-yl)-5,6,7,8-tetrahydro-2H-isoquinolin-1-one]: the negative-log IC50 (pIC50) is 6.47.

With `Cn1ccnc1CN(Cc1ccccc1)Cc1ccc(-c2c[nH]c(=O)c3c2CCCC3)o1` [Example 69, 4-(5-{[benzyl(1-methyl-1H-imidazol-2-ylmethyl)amino]-methyl}furan-2-yl)-5,6,7,8-tetrahydro-2H-isoquinolin-1-one], the pIC50 was 5.56.

In the case of `O=c1[nH]cc(-c2ccc(CNC3Cc4ccccc4C3)o2)c2c1CCCC2` [Example 70, 4-[5-(indan-2-ylaminomethyl)-furan-2-yl]-5,6,7,8-tetrahydro-2H-isoquinolin-1-one], the negative logarithm of the IC50 (pIC50) is 6.51.

For `CN1CCN(CNCc2ccc(-c3c[nH]c(=O)c4c3CCCC4)o2)CC1` [Example 73, 4-(5-{[(4-methylpiperazin-1-ylmethyl)amino]methyl}furan-2-yl)-5,6,7,8-tetrahydro-2H-isoquinolin-1-one], the pIC50 was 6.18.

On to `CC(=O)Nc1ccc(CNCc2ccc(-c3c[nH]c(=O)c4c3CCCC4)o2)cc1` [Example 75, N-[4-({[5-(1-oxo-1,2,5,6,7,8-hexahydroisoquinolin-4-yl)furan-2-ylmethyl]amino}methyl)phenyl]-acetamide], for which the pIC50 was 6.29.

Take `O=c1[nH]cc(-c2ccc(CN3CCSC3)o2)c2c1CCCC2` [Example 76, 4-(5-thiazolidin-3-ylmethylfuran-2-yl)-5,6,7,8-tetrahydro-2H-isoquinolin-1-one]: the pIC50 is 6.36.

Turning to `Cn1cc(CNCc2ccc(-c3c[nH]c(=O)c4c3CCCC4)o2)cn1` [Example 77, 4-(5-{[(1-methyl-1H-pyrazol-4-ylmethyl)amino]methyl}furan-2-yl)-5,6,7,8-tetrahydro-2H-isoquinolin-1-one], the pIC50 is 6.74.

In the case of `O=c1[nH]cc(-c2ccc(CNCc3ccccc3)o2)c2c1CCCC2` [Example 79, 4-[5-(benzylaminomethyl)furan-2-yl]-5,6,7,8-tetrahydro-2H-isoquinolin-1-one], the pIC50 was 6.82.

Consider `O=C(NCc1ccc(-c2c[nH]c(=O)c3c2CCCC3)o1)C(F)(F)F` [Example 80, 2,2,2-trifluoro-N-[5-(1-oxo-1,2,5,6,7,8-hexahydroisoquinolin-4-yl)furan-2-ylmethyl]acetamide], for which the negative logarithm of the IC50 (pIC50) is 6.27.

As to `CC(C)CC(=O)NCc1ccc(-c2c[nH]c(=O)c3c2CCCC3)o1` [Example 81, 3-methyl-N-[5-(1-oxo-1,2,5,6,7,8-hexahydroisoquinolin-4-yl)furan-2-ylmethyl]butyramide], the pIC50 was 5.97.

Take `O=C(NCc1ccc(-c2c[nH]c(=O)c3c2CCCC3)o1)c1ccco1` [Example 82, N-[5-(1-oxo-1,2,5,6,7,8-hexahydroisoquinolin-4-yl)furan-2-ylmethyl]furan-2-carboxamide]: the pIC50 is 6.34.

On to `COc1ccc(C(=O)NCc2ccc(-c3c[nH]c(=O)c4c3CCCC4)o2)cc1` [Example 83, 4-methoxy-N-[5-(1-oxo-1,2,5,6,7,8-hexahydroisoquinolin-4-yl)furan-2-ylmethyl]benzamide], for which the pIC50 was 5.90.

Consider `O=C(NCc1ccc(-c2c[nH]c(=O)c3c2CCCC3)o1)c1cccnc1` [Example 84, N-[5-(1-oxo-1,2,5,6,7,8-hexahydroisoquinolin-4-yl)furan-2-ylmethyl]nicotinamide], for which the negative-log IC50 (pIC50) is 6.10.

`O=c1[nH]cc(-c2ccc(CNS(=O)(=O)c3ccc(Oc4ccccn4)cc3)o2)c2c1CCCC2` [Example 85, N-[5-(1-oxo-1,2,5,6,7,8-hexahydroisoquinolin-4-yl)furan-2-ylmethyl]-4-(pyridin-2-yloxy)benzenesulfonamide]: the pIC50 is 5.79.

With `COc1cccc(S(=O)(=O)NCc2ccc(-c3c[nH]c(=O)c4c3CCCC4)o2)c1` [Example 86, 3-methoxy-N-[5-(1-oxo-1,2,5,6,7,8-hexahydroisoquinolin-4-yl)furan-2-ylmethyl]benzenesulfonamide], the negative-log IC50 (pIC50) is 5.61.

Usually pIC50 stands for −log10 of the IC50, conventionally taken in molar units.
